Molecules are shown by their SMILES.

This is an account of results in patent EP0005055A2, “6,11-Dihydrodibenzo-thiepin-11-ones and their S-oxides, methods for their preparation and pharmaceutical compositions containing them” (SYNTEX (U.S.A.) INC., priority 1978, dated 1979).

Series [1] in a line: Mouse Acute Oral Toxicity (LD50). The settings on record: in vivo, oral by stomach tube, single dose, mice observed for deaths over 14 days. The protocol:
B) Mouse Acute Oral Toxicity (LD50)
Protocol: The test material is suspended in an aqueous vehicle containing carboxymethyl cellulose. A volume of 10 ml/kg body weight is used for each dose. The test material is given orally by stomach tube to 24 male Swiss-Webster mice, 6 per group, on the first day of the test, using doses of 250, 500, 1000 and 2000 mg./kg. body weight of test compound. Another group of 6 mice, receiving the vehicle only, serve as the control. The mice are observed for deaths over a 14-day period.

The subject of a further series is Albino rats. Kind of series: Heat Induced Dermal Trauma Assay. The class given is in vivo. Conditions: topical in ethanol, treatment 0 post burn, skin disc weighed 3 hours later, 6 rats, control 500.7±13.6. The protocol:
A) Heat Induced Dermal Trauma Assay ,
Test Animal: Albino rats, 120-140 g.
Procedure: The ventral area of the rats is shaved and depilated with a commercially available depilatory on the afternoon of the day prior to trauma. (The depilatory is applied for 15 minutes and then removed by washing with water.) The following day, a 25 mm diameter circle is traced on the abdomen beneath the sternum with a colored pen. A brass stamp of the same size, through which hot water (53°C) is circulated, is firmly applied to the center of the colored outline for 45 seconds while the rats are lightly anesthetized with ether. The test materials in ethanol are administered topically to the tramatized area immediately after withdrawing the stamp. The animals are sacrificed 3 hours later, at which time the ventral skin is removed and a piece of skin form the center of the marked area is punched out with a No. 10 cork bore and weighed.
End Point: The weight in mg of the inflammed piece of skin which is removed from the marked area with the cork bore.

In the case of `O=C(O)Cc1ccc2c(c1)[S+]([O-])Cc1ccccc1C2=O` (stereo not shown) [6,11-dihydrodibenzo-[b.e]-thiepin-11-one-3-acetic S-oxide], the LD50 at 336 h in series [1] is above 2000 mg/kg.
In series [1], `O=C(O)Cc1ccc2c(c1)SCc1cc(Cl)ccc1C2=O` [8-chloro-6,11-dihydrodibenzo-[b.e.]-thiepin-11-one-3-acetic acid] showed an LD50 at 336 h of around 300 mg/kg. Besides, the “Mean Disc. Wt. mg.± S.E.” value came out at 296.8 ± 21.8 mg in the series with Albino rats (dose 0.006 mg.), 218.8 ± 6.5 mg with Albino rats (dose 0.025 mg.), 201.4 ± 12.0 mg in the series with Albino rats (dose 0.1 mg.) and 147.2 ± 10.2 mg in the series with Albino rats (dose 0.4 mg.).
Consider `COc1ccc2c(c1)CSc1cc(CC(=O)O)ccc1C2=O` [8-methoxy-6,11-dihydro-dibenzo-[b.e.]-thiepin-11-one-3-acetic acid], for which the “Mean Disc. Wt. mg.± S.E.” value with Albino rats (dose 0.006 mg.) worked out at 279.6 ± 13.17 mg; in the series on Albino rats (dose 0.025 mg.), 241.6 ± 7.56 mg; with Albino rats (dose 0.1 mg.), 197.5 ± 25.07 mg; with Albino rats (dose 0.4 mg.) it was 177.9 ± 18.98 mg.
